Assay results: US20250265710A1, “NON-INVASIVE LASER SPECKLE IMAGING OF EXTRA-EMBRYONIC BLOOD VESSELS” (California Institute of Technology, priority 2024, published 2025)
Where two headings read alike, the source gives them in different places.

System: chick embryonic heart
Method: These drugs were injected through the shell ventral to chick embryos at a developmental HH stage between HH16-19. The needle was guided to the embryos by the LLSCI system in live view mode.
In one example, before imaging, the eggs are injected with a drug by implementing a live view mode to ascertain the position of the embryo's heart and inserted a needle into the eggshell and the drug was injected into the area ventral to the embryo in a volume of 25-150 μL. This may result in a hole in the eggshell having a diameter between 0.6 and 0.8 mm. The hole can be covered by transparent tape to ensure the continued development of the embryo. After injection, the egg may be placed in an incubator (e.g., incubator 440 in FIG. 4) and imaged at regular intervals using a GUI (e.g., GUI 487 in FIG. 4). FIG. 22 is a schematic representation of a procedure for using LSCI imaging to determine the location of avian embryos for injection, according to an embodiment.
FIG. 23A depicts images of extraembryonic blood vessels of the control egg generated by the LSCI system 400 in FIG. 4 and images (frames) of a movie showing the dynamics of the blood vessels at time=3 minutes, time=34 minutes, time=73 minutes, time=129 minutes, time=250 minutes, and time=270 minutes. FIG. 23A also includes a time trace of BFI at these times. The time trace of the BFI is indicative of heart rate.
To quantify and characterize the effects of injecting a drug solution onto the CAM, an LSCI system was used to extract four features from the blood vessels images and blood flow graphs. FIG. 24 depicts examples of extraembryonic blood vessel images 2410, 2420 before and after feature extraction, and a heartbeat signal, according to embodiments. Blood vessel skeleton, branches, and the size of the CAM visualized. […] The LSCI system implemented the LSCI process 1400 shown in FIG. 14 to extract the features.
In various examples, the length of the blood vessels may be calculated as the total length of the vessel skeleton in the blood vessel image. In various examples, the number of branches may be determined by counting the branch points connecting the blood vessels and isolated vessel segments in the blood vessel images. In various examples, the vessel area may be obtained by calculating the area of the CAM in the blood vessel image. In various examples, the heart rate may be measured from the Fourier transform of the blood flow signal.
Tests were also performed on five eggs for each of the two Amlodipine concentrations. […] FIG. 25B includes a plot of heart rate 2530, a plot of length of blood vessels 2532, a plot of the number of branches 2540, and a plot of the size of the area vaculosa (AV) 2542 for test eggs injected with two different Amlodipine concentrations, according to embodiments.

| SMILES | embryo viability (higher doses >60 nmol) | time to heart rate nadir (higher doses >60 nmol) | embryo development when incubated 7 days after the experiment (lowest dose tested (<50 nmol)) | time after injection without begin of return of heart rate to normal levels (higher doses above 5 nmol) | time to heart rate nadir (higher doses above 5 nmol) | period over which heart rate dropped (low doses around 3 nmol) | heart rate an hour after injection (one egg, 50 μL solution with 3 nmole) | heart rate after injection (one egg, 50 μL solution with 3 nmole, dropped from 132 bpm pre-injection) |
| --- | --- | --- | --- | --- | --- | --- | --- | --- |
| CCOC(=O)C1=C(COCCN)NC(C)=C(C(=O)OC)C1c1ccccc1Cl (centres unmarked) [Amlodipine] | embryo died at the time of injection, or its later development was heavily compromised | 20 min | developed normally |  |  |  |  |  |
| COC(=O)C1=C(C)NC(C)=C(C(=O)OC)C1c1ccccc1[N+](=O)[O-] [Nifedipine] |  |  |  | > 100 min | 20 min | 40 min | 100 bpm | 94 bpm |
